In ChEMBL document CHEMBL1201861, “Genomics of Drug Sensitity in Cancer screening data, Wellcome Trust Sanger Institute”:

Tests used:
Assay in all cases: cells
CWR22R = assay type: functional, cell-based, Homo sapiens; conditions: Homo sapiens, 22Rv1;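 also: growth inhibition of 22Rv1 cells, read out with a cell viability assay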
Description: SANGER: Inhibition of human 22RV1 cell growth in a cell viability assay.

RPMI-2650 = assay type: functional, cell-based, Homo sapiens; conditions: Homo sapiens, RPMI-2650
Description: SANGER: Inhibition of human RPMI-2650 cell growth in a cell viability assay.

BB30-HNC = assay type: functional, cell-based, Homo sapiens; conditions: Homo sapiens, BB30-HNC;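 also: growth inhibition of the cultured cell line, read out by a cell viability assay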
Description: SANGER: Inhibition of human BB30-HNC cell growth in a cell viability assay.

SK-MEL-24 = assay type: functional, cell-based; conditions: Homo sapiens;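 also: growth inhibition read out by a cell viability assay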
Description: SANGER: Inhibition of human SK-MEL-24 cell growth in a cell viability assay.

GAMG = assay type: functional, cell-based, Homo sapiens; conditions: Homo sapiens, GAMG;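 also: cell growth inhibition measured by a viability assay in the GAMG human cell line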
Description: SANGER: Inhibition of human GAMG cell growth in a cell viability assay.

K562 = assay type: functional, cell-based; conditions: Homo sapiens
Description: SANGER: Inhibition of human K-562 cell growth in a cell viability assay.

J-RT3-T3-5 = assay type: functional, cell-based; conditions: Homo sapiens;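 also: cell viability assay measuring growth inhibition of human J-RT3-T3-5 cells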
Description: SANGER: Inhibition of human J-RT3-T3-5 cell growth in a cell viability assay.

SNU1 = assay type: functional, cell-based; conditions: Homo sapiens;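 also: growth inhibition of human NCI-SNU-1 cells, measured with a cell viability assay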
Description: SANGER: Inhibition of human NCI-SNU-1 cell growth in a cell viability assay.

HO-1-N-1 = assay type: functional, cell-based, Homo sapiens; conditions: Homo sapiens, HO-1-N-1;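 also: growth inhibition of human HO-1-N-1 cells, read out with a cell viability assay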
Description: SANGER: Inhibition of human HO-1-N-1 cell growth in a cell viability assay.

BXPC-3 = assay type: functional, cell-based, Homo sapiens; conditions: Homo sapiens, BXPC-3;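 also: growth inhibition of human BxPC-3 cells, read out by a cell viability assay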
Description: SANGER: Inhibition of human BxPC-3 cell growth in a cell viability assay.

OCUB-M = assay type: functional, cell-based, Homo sapiens; conditions: Homo sapiens, OCUB-M;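 also: growth inhibition of the cancer cell line, read out through a cell viability assay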
Description: SANGER: Inhibition of human OCUB-M cell growth in a cell viability assay.

S-117 = assay type: functional, cell-based, Homo sapiens; conditions: Homo sapiens, S-117
Description: SANGER: Inhibition of human S-117 cell growth in a cell viability assay.

DSH1 = assay type: functional, cell-based, Homo sapiens; conditions: Homo sapiens, DSH1;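 also: growth inhibition of human DSH1 cells, measured with a cell viability readout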
Description: SANGER: Inhibition of human DSH1 cell growth in a cell viability assay.

NB17 = assay type: functional, cell-based; conditions: Homo sapiens;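 also: growth inhibition of NB17 cells, read out with a cell viability assay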
Description: SANGER: Inhibition of human NB17 cell growth in a cell viability assay.

SW1463 = assay type: functional, cell-based, Homo sapiens; conditions: Homo sapiens, SW1463;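 also: growth inhibition of SW1463 cells, determined with a cell viability assay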
Description: SANGER: Inhibition of human SW1463 cell growth in a cell viability assay.

CP50-MEL-B = assay type: functional, cell-based, Homo sapiens; conditions: Homo sapiens, CP50-MEL-B;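 also: growth inhibition of the human cell line, measured with a cell viability read-out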
Description: SANGER: Inhibition of human CP50-MEL-B cell growth in a cell viability assay.

IGROV-1 = assay type: functional, cell-based, Homo sapiens; conditions: Homo sapiens, IGROV-1;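 also: reduction of IGROV-1 cell growth, read out with a viability assay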
Description: SANGER: Inhibition of human IGROV-1 cell growth in a cell viability assay.

CAL-51 = assay type: functional, cell-based, Homo sapiens; conditions: Homo sapiens, CAL-51;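 also: human CAL-51 cell line, growth inhibition read out via a cell viability assay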
Description: SANGER: Inhibition of human CAL-51 cell growth in a cell viability assay.

HOS = assay type: functional, cell-based, Homo sapiens; conditions: Homo sapiens, HOS;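 also: growth inhibition of human HOS cells, read out with a cell viability assay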
Description: SANGER: Inhibition of human HOS cell growth in a cell viability assay.

HCC1395 = assay type: functional, cell-based, Homo sapiens; conditions: Homo sapiens, HCC1395;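 also: growth inhibition of HCC1395 cells, read out by a cell viability assay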
Description: SANGER: Inhibition of human HCC1395 cell growth in a cell viability assay.

RCM-1 = assay type: functional, cell-based, Homo sapiens; conditions: Homo sapiens, RCM-1;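 also: growth inhibition of the RCM-1 line, determined with a cell viability readout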
Description: SANGER: Inhibition of human RCM-1 cell growth in a cell viability assay.

NCI-H2452 = assay type: functional, cell-based, Homo sapiens; conditions: Homo sapiens, NCI-H2452;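 also: growth inhibition of NCI-H2452 cells, read out with a cell viability assay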
Description: SANGER: Inhibition of human NCI-H2452 cell growth in a cell viability assay.

DJM-1 = assay type: functional, cell-based, Homo sapiens; conditions: Homo sapiens, DJM-1;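 also: growth inhibition of human DJM-1 cells, read out by a cell viability assay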
Description: SANGER: Inhibition of human DJM-1 cell growth in a cell viability assay.

HT-1376 = assay type: functional, cell-based, Homo sapiens; conditions: Homo sapiens, HT-1376
Description: SANGER: Inhibition of human HT-1376 cell growth in a cell viability assay.

L-363 = assay type: functional, cell-based; conditions: Homo sapiens
Description: SANGER: Inhibition of human L-363 cell growth in a cell viability assay.

MMAC-SF = assay type: functional, cell-based, Homo sapiens; conditions: Homo sapiens, MMAC-SF;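 also: growth inhibition of human MMAC-SF cells, read out with a cell viability assay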
Description: SANGER: Inhibition of human MMAC-SF cell growth in a cell viability assay.

A2780 = assay type: functional, cell-based, Homo sapiens; conditions: Homo sapiens, A2780;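 also: growth inhibition of A2780 cells, read out with a cell viability assay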
Description: SANGER: Inhibition of human A2780 cell growth in a cell viability assay.

SK-N-AS = assay type: functional, cell-based, Homo sapiens; conditions: Homo sapiens, SK-N-AS;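 also: growth inhibition of human SK-N-AS cells, measured with a cell viability assay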
Description: SANGER: Inhibition of human SK-N-AS cell growth in a cell viability assay.

NCI-H2126 = assay type: functional, cell-based, Homo sapiens; conditions: Homo sapiens, NCI-H2126;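 also: growth inhibition of the cancer cell line, determined with a cell viability readout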
Description: SANGER: Inhibition of human NCI-H2126 cell growth in a cell viability assay.

KP-4 = assay type: functional, cell-based, Homo sapiens; conditions: Homo sapiens, KP-4; read-out: IC50;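 also: human KP-4 cells, with growth inhibition read out through a cell viability assay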
Description: SANGER: Inhibition of human KP-4 cell growth in a cell viability assay.

D-502MG = assay type: functional, cell-based, Homo sapiens; conditions: Homo sapiens, D-502MG
Description: SANGER: Inhibition of human D-502MG cell growth in a cell viability assay.

LXF-289 cell line = assay type: functional, cell-based, Homo sapiens; conditions: Homo sapiens, LXF-289
Description: SANGER: Inhibition of human LXF-289 cell growth in a cell viability assay.

Ramos-2G6-4C10 = assay type: functional, cell-based; conditions: Homo sapiens;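 also: growth inhibition of the cell line, measured by a cell viability read-out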
Description: SANGER: Inhibition of human Ramos-2G6-4C10 cell growth in a cell viability assay.

SW872 = assay type: functional, cell-based, Homo sapiens; conditions: Homo sapiens, SW872;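 also: growth inhibition of SW872 cells, read out by a viability assay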
Description: SANGER: Inhibition of human SW872 cell growth in a cell viability assay.

MDA-MB-415 = assay type: functional, cell-based; conditions: Homo sapiens
AU565 = assay type: functional, cell-based, Homo sapiens; conditions: Homo sapiens, AU565;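 also: cell viability assay measuring growth inhibition of human AU565 cells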
Description: SANGER: Inhibition of human AU565 cell growth in a cell viability assay.

A3-KAW = assay type: functional, cell-based; conditions: Homo sapiens;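 also: growth inhibition of human A3-KAW cells, read out with a cell viability assay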
Description: SANGER: Inhibition of human A3-KAW cell growth in a cell viability assay.

OCI-AML2 = assay type: functional, cell-based; conditions: Homo sapiens;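 also: growth inhibition of OCI-AML2 cells, read out with a cell viability assay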
Description: SANGER: Inhibition of human OCI-AML2 cell growth in a cell viability assay.

SK-N-DZ = assay type: functional, cell-based, Homo sapiens; conditions: Homo sapiens, SK-N-DZ;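 also: growth inhibition of the cancer cell line, read out through a viability assay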
Description: SANGER: Inhibition of human SK-N-DZ cell growth in a cell viability assay.

UMC-11 = assay type: functional, cell-based, Homo sapiens; conditions: Homo sapiens, UMC-11;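 also: growth inhibition of UMC-11 cells, read out with a cell viability assay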
Description: SANGER: Inhibition of human UMC-11 cell growth in a cell viability assay.

EM-2 = assay type: functional, cell-based; conditions: Homo sapiens;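 also: growth inhibition of EM-2 cells, read out with a cell viability assay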
Description: SANGER: Inhibition of human EM-2 cell growth in a cell viability assay.

C3A = assay type: functional, cell-based, Homo sapiens; conditions: Homo sapiens, C3A;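 also: growth inhibition of C3A human cells, quantified with a cell viability readout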
Description: SANGER: Inhibition of human C3A cell growth in a cell viability assay.

TGBC24TKB = assay type: functional, cell-based, Homo sapiens; conditions: Homo sapiens, TGBC24TKB;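 also: growth inhibition of human TGBC24TKB cells, read out with a cell viability assay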
Description: SANGER: Inhibition of human TGBC24TKB cell growth in a cell viability assay.

NCI-H650 = assay type: functional, cell-based, Homo sapiens; conditions: Homo sapiens, NCI-H650;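 also: growth inhibition of NCI-H650 cells, read out by a viability assay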
Description: SANGER: Inhibition of human NCI-H650 cell growth in a cell viability assay.

COLO-684 = assay type: functional, cell-based; conditions: Homo sapiens
Description: SANGER: Inhibition of human COLO-684 cell growth in a cell viability assay.

KNS-42 = assay type: functional, cell-based, Homo sapiens; conditions: Homo sapiens, KNS-42;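 also: growth inhibition of KNS-42 cells, read out with a cell viability assay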
Description: SANGER: Inhibition of human KNS-42 cell growth in a cell viability assay.

HEC-1 = assay type: functional, cell-based, Homo sapiens; conditions: Homo sapiens, HEC-1;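 also: growth inhibition of the cell line, read out with a cell viability assay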
Description: SANGER: Inhibition of human HEC-1 cell growth in a cell viability assay.

MV4-11 = assay type: functional, cell-based, MV-4-11; conditions: Homo sapiens;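 also: cell viability readout measuring growth inhibition of human MV-4-11 cells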
Description: SANGER: Inhibition of human MV-4-11 cell growth in a cell viability assay.

NCI-H2087 = assay type: functional, cell-based, Homo sapiens; conditions: Homo sapiens, NCI-H2087;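 also: growth inhibition determined with a cell viability readout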
Description: SANGER: Inhibition of human NCI-H2087 cell growth in a cell viability assay.

C-33-A = assay type: functional, cell-based, Homo sapiens; conditions: Homo sapiens, C-33-A;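 also: cell viability assay measuring growth inhibition of C-33-A cells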
Description: SANGER: Inhibition of human C-33-A cell growth in a cell viability assay.

KYSE-70 cell line = assay type: functional, cell-based, Homo sapiens; conditions: Homo sapiens, KYSE-70;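 also: cell viability assay read-out, with IC50 expressing suppression of KYSE-70 cell growth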
Description: SANGER: Inhibition of human KYSE-70 cell growth in a cell viability assay.

Measured: IC50

CC(=O)O[C@@H]1[C@@H](OC(C)=O)[C@@H](O)[C@H](Oc2c(-c3ccc(O)cc3)oc3cc(O)cc(O)c3c2=O)O[C@H]1C
> 10 µM: CWR22R | RPMI-2650 | BB30-HNC | SK-MEL-24 | GAMG | K562 | J-RT3-T3-5 | SNU1 | HO-1-N-1 | BXPC-3 | OCUB-M | S-117 | DSH1 | NB17 | SW1463 | CP50-MEL-B | IGROV-1 | CAL-51 | HOS | HCC1395 | RCM-1 | NCI-H2452 | DJM-1 | HT-1376 | L-363 | MMAC-SF | A2780 | SK-N-AS | NCI-H2126 | KP-4 | D-502MG | LXF-289 cell line | Ramos-2G6-4C10 | SW872 | MDA-MB-415 | AU565 | A3-KAW | OCI-AML2 | SK-N-DZ | UMC-11 | EM-2 | C3A | TGBC24TKB | NCI-H650 | COLO-684 | KNS-42 | HEC-1 | MV4-11 | NCI-H2087 | C-33-A | KYSE-70 cell line

COc1cc(F)c(F)c(Nc2ccc(I)cc2F)c1NS(=O)(=O)C1(CC(O)CO)CC1 (stereo unspecified)
0.0215 µM: CP50-MEL-B
1.24 µM: SNU1
0.812 µM: MV4-11
1.58 µM: BB30-HNC
1.78 µM: IGROV-1
2.42 µM: NCI-H2087
> 5 µM: CWR22R | RPMI-2650 | SK-MEL-24 | GAMG | K562 | J-RT3-T3-5 | OCUB-M | S-117 | DSH1 | NB17 | CAL-51 | HOS | HCC1395 | NCI-H2452 | DJM-1 | HT-1376 | L-363 | A2780 | NCI-H2126 | KP-4 | Ramos-2G6-4C10 | MDA-MB-415 | AU565 | A3-KAW | OCI-AML2 | SK-N-DZ | UMC-11 | EM-2 | C3A | TGBC24TKB | NCI-H650 | COLO-684 | KNS-42 | HEC-1 | C-33-A | KYSE-70 cell line
0.136 µM: RCM-1
3.54 µM: LXF-289 cell line
0.0433 µM: SK-N-AS
0.591 µM: HO-1-N-1
4.13 µM: SW1463
3.81 µM: D-502MG
1.6 µM: BXPC-3
0.774 µM: SW872
